Laboratory results published in publication PMC10313705, “Structure and transport mechanism of the human calcium pump SPCA1” (Cell Research, 2023).

Legend:
hSPCA1 (hSPCA1a) [1] = target: T1, hSPCA1 (hSPCA1a) (Homo sapiens, UniProt P98194); test: cryo-EM structure; type: binding; set-up: gene ATP2C1; full-length (Met1-Val919), C-terminal 2x Strep tag, expressed in HEK293F cells, purified in DDM/CHS then digitonin; residues 1-15 and 906-919 not modelled; conditions: phosphate transition-state analogue at Asp350; E2~P state; 10 mM NaF, 2 mM AlCl3, Mg2+, no added Ca2+, pH 8.0
T1 sequence (P98194 1-919): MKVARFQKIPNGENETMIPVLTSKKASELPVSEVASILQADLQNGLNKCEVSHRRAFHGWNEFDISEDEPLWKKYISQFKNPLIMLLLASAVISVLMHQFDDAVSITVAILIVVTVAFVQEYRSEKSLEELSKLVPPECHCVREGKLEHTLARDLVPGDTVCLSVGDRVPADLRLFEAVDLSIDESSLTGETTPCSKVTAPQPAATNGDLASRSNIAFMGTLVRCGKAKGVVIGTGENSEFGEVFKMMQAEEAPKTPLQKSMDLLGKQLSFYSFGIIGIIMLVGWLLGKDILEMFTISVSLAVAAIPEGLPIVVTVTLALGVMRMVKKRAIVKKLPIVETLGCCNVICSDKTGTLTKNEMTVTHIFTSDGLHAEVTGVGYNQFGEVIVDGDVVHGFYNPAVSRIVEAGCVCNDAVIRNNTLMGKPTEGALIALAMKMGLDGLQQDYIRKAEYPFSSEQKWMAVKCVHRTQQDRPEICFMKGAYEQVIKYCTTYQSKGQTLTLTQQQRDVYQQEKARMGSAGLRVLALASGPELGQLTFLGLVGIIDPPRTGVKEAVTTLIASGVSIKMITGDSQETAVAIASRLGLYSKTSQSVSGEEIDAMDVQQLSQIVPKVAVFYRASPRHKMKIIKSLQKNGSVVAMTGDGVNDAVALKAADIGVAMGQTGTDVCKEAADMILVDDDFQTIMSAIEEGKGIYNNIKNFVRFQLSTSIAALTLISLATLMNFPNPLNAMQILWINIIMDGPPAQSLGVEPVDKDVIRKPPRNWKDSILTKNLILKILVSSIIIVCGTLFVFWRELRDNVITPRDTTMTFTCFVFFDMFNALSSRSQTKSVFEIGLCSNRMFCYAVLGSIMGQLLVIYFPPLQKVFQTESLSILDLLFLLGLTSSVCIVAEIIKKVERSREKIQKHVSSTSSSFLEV

hSPCA1 (hSPCA1a) [2] = target: T1, hSPCA1 (hSPCA1a); test: cryo-EM structure ([…] Å); type: binding; set-up: gene ATP2C1; full-length (Met1-Val919), C-terminal 2x Strep tag, expressed in HEK293F cells, purified in DDM/CHS then digitonin; residues 1-15 and 906-919 not modelled; conditions: CaE1P-ADP state; 5 mM ADP, 5 mM NaF, 1 mM AlCl3; Ca2+, Mg2+, pH 8.0
hSPCA1 (hSPCA1a) [3] = target: T1, hSPCA1 (hSPCA1a); set-up: gene ATP2C1; conditions: ATP hydrolysis by purified protein in digitonin
hSPCA1 (hSPCA1a) [4] = target: T1, hSPCA1 (hSPCA1a); set-up: gene ATP2C1; conditions: phosphate analogue at Asp350; 10 mM NaF, 2 mM BeSO4, 1 mM CaCl2, Mg2+, pH 8.0; CaE2P (8IWS) and early E2P (8IWT) states

[F][Al-]([F])([F])[F] [AlF4^–]
cryo-EM structure (hSPCA1 (hSPCA1a) [1]): The EM densities derived from AlF4^– were clearly visible near Asp350

Nc1ncnc2c1ncn2[C@@H]1O[C@H](COP(=O)(O)OP(=O)(O)O)[C@@H](O)[C@H]1O [ADP]
cryo-EM structure (3.71 Å) (hSPCA1 (hSPCA1a) [2]): the ADP molecule (dark gray) in the CaE1P-ADP state

Nc1ncnc2c1ncn2[C@@H]1O[C@H](COP(=O)(O)OP(=O)(O)OP(=O)(O)O)[C@@H](O)[C@H]1O [ATP]
ATPase assay, Pi release kit (absorbance at 636 nm) (hSPCA1 (hSPCA1a) [3]): an ATPase activity assay demonstrated that it has ATP hydrolysis activity

[F][Be-]([F])[F] [BeF3^–]
cryo-EM structures (3.42 Å CaE2P; 3.25 Å early E2P) (hSPCA1 (hSPCA1a) [4]): allowed us to trace the BeF3^– densities which were clearly visible near Asp350
